Like-named read-outs stand apart in the source and are kept apart here.
Legend:
[1] = test system: patients with previously untreated metastatic PDAC; experiment: Phase 1 efficacy: best overall response (RECIST v1.1), OS, PFS, duration of response; format: in vivo, human
Experimental: All patients provided written informed consent prior to enrollment.
Staging CT or MRI scans were performed at baseline and approximately every 8 weeks following Cycle 1 Day 1. Imaging modalities were maintained over the course of the study. Treatment was to continue in the absence of disease progression, unacceptable toxicity, consent withdrawal, or refusal of treatment. After discontinuation of treatment, patients were followed for safety for 30 days.
The efficacy analyses were conducted in all enrolled patients.

[2] = Plasma pharmacokinetics on Cycle 1 Day 15, noncompartmental; format: in vivo, human; details: for Cmax / half-life / Tmax / AUC: human, plasma, oral
Experimental: Blood samples were collected from patients prior to the MMB dose and at specified time points up to 24 h post-dose on Cycle 1 Day 15. Pharmacokinetic (PK) parameters were estimated using Phoenix WinNonlin® software (Certara USA, Inc., Princeton, NJ) using standard noncompartmental methods.

[3] = test system: TBK1; experiment: TBK1 inhibition estimated from plasma Cmax; design: species or system human
[4] = 100 mg MMB QD n = 7, + nab-P + G
[5] = 150 mg MMB BID n = 3, + nab-P + G
[6] = 150 mg MMB QD n = 4, + nab-P + G
[7] = 200 mg MMB BID n = 4, + nab-P + G
[8] = 200 mg MMB QD n = 7, + nab-P + G
[9] = all cohorts, MMB + nab-P + G, n = 25
[10] = overall study population, MMB + nab-P + G

With `N#CCNC(=O)c1ccc(-c2ccnc(Nc3ccc(N4CCOCC4)cc3)n2)cc1` [MMB, momelotinib] the “Best overall response: CR” value [1, 4] was 0 n, (%), the “Best overall response: Not evaluable” value [1, 4] was 2 (28.6) n, (%) and the “Best overall response: ORR (CR + PR)” value [1, 4] was 2 (28.6) n, (%). For the same compound, the “Best overall response: PD” value [1, 4] was 1 (14.3) n, (%), the “Best overall response: PR” value [1, 4] was 2 (28.6) n, (%) and the “Best overall response: SD” value [1, 4] was 2 (28.6) n, (%). For the same compound, the “Best overall response: CR” value [1, 5] was 0 n, (%), the “Best overall response: Not evaluable” value [1, 5] was 1 (33.3) n, (%) and the “Best overall response: ORR (CR + PR)” value [1, 5] was 1 (33.3) n, (%). For the same compound, the “Best overall response: PD” value [1, 5] was 0 n, (%), the “Best overall response: PR” value [1, 5] was 1 (33.3) n, (%) and the “Best overall response: SD” value [1, 5] was 1 (33.3) n, (%). For the same compound, the “Best overall response: CR” value [1, 6] was 0 n, (%), the “Best overall response: Not evaluable” value [1, 6] was 0 n, (%) and the “Best overall response: ORR (CR + PR)” value [1, 6] was 1 (25.0) n, (%). For the same compound, the “Best overall response: PD” value [1, 6] was 1 (25.0) n, (%), the “Best overall response: PR” value [1, 6] was 1 (25.0) n, (%) and the “Best overall response: SD” value [1, 6] was 2 (50.0) n, (%). For the same compound, the “Best overall response: CR” value [1, 7] was 0 n, (%), the “Best overall response: Not evaluable” value [1, 7] was 0 n, (%) and the “Best overall response: ORR (CR + PR)” value [1, 7] was 0 n, (%). The “Best overall response: PD” value [1, 7] was 0 n, (%), the “Best overall response: PR” value [1, 7] was 0 n, (%) and the “Best overall response: SD” value [1, 7] was 4 (100.0) n, (%). For the same compound, the “Best overall response: CR” value [1, 8] was 0 n, (%), the “Best overall response: Not evaluable” value [1, 8] was 0 n, (%) and the “Best overall response: ORR (CR + PR)” value [1, 8] was 3 (42.9) n, (%). For the same compound, the “Best overall response: PD” value [1, 8] was 0 n, (%), the “Best overall response: PR” value [1, 8] was 3 (42.9) n, (%) and the “Best overall response: SD” value [1, 8] was 4 (57.1) n, (%). The “Complete responses (CRs) across the dose cohorts” value [1, 9] was “no CRs”, the “Partial responses (PRs) across the dose cohorts” value [1, 9] was 7 and the “Stable disease as the best response, patients” value [1, 9] was 52%. For the same compound, the “Objective response rate (ORR), overall study population” value ([1]; all cohorts, MMB + nab-P + G, n = 25, 95% CI 12.1%–49.4%) was 28%, the “Median (95% CI) OS” value [1, 10] was 8.7 (6.7, 18.8) months and the “Median (95% CI) PFS” value [1, 10] was 5.7 (5.3, 7.2) months. For the same compound, the “Median (95% CI) duration of response” value ([1]; the 7 patients with a PR) was 4.0 (0.5, not reached) months, the “Increases in exposure with dose” value ([2]; 100-200 mg MMB) was “less than dose-proportional” and the “AUCtau, 200 mg once-daily compared with 100 mg once-daily” value ([2]; Cycle 1 Day 15) was “less than 2 fold”. The “Cmax, 200 mg once-daily compared with 100 mg once-daily” value ([2]; Cycle 1 Day 15) was “less than 2 fold”, the Cmax ([2]; 100 mg, 100 mg MMB QD n = 6, steady state, mean (% coefficient of variation), read-out: Cmax) was 258 ng/mL and the half-life ([2]; 100 mg, 100 mg MMB QD n = 6, steady state, median (first quarter, third quarter), read-out: T 1/2 (converted)) was 5.4 h. For the same compound, the Tmax ([2]; 100 mg, 100 mg MMB QD n = 6, steady state, median (first quarter, third quarter), read-out: Tmax) was 4.5 h, the AUC ([2]; 100 mg, 100 mg MMB QD n = 6, steady state, mean (% coefficient of variation)) was 2000 ng·h/mL and the AUC ([2]; 150 mg, 150 mg MMB BID n = 1, steady state) was 1520 ng·h/mL. For the same compound, the Cmax ([2]; 150 mg, 150 mg MMB BID n = 1, steady state, read-out: Cmax) was 215 ng/mL, the half-life ([2]; 150 mg, 150 mg MMB BID n = 1, steady state, read-out: T 1/2 (converted)) was 5 h and the Tmax ([2]; 150 mg, 150 mg MMB BID n = 1, steady state, read-out: Tmax) was 3 h. For the same compound, the Cmax ([2]; 150 mg, 150 mg MMB QD n = 3, steady state, mean (% coefficient of variation), read-out: Cmax) was 200 ng/mL, the half-life ([2]; 150 mg, 150 mg MMB QD n = 3, steady state, median (first quarter, third quarter), read-out: T 1/2 (converted)) was 6.6 h and the Tmax ([2]; 150 mg, 150 mg MMB QD n = 3, steady state, median (first quarter, third quarter), read-out: Tmax) was 3.2 h. It also gave an AUC ([2]; 150 mg, 150 mg MMB QD n = 3, steady state, mean (% coefficient of variation)) of 1680 ng·h/mL, a Cmax ([2]; 200 mg, 200 mg MMB BID n = 3, steady state, mean (% coefficient of variation), read-out: Cmax) of 330 ng/mL and a half-life ([2]; 200 mg, 200 mg MMB BID n = 3, steady state, median (first quarter, third quarter), read-out: T 1/2 (converted)) of 5.5 h. The Tmax ([2]; 200 mg, 200 mg MMB BID n = 3, steady state, median (first quarter, third quarter), read-out: Tmax) was 3 h, the AUC ([2]; 200 mg, 200 mg MMB BID n = 3, steady state, mean (% coefficient of variation)) was 1980 ng·h/mL and the Cmax ([2]; 200 mg, 200 mg MMB QD n = 6, steady state, mean (% coefficient of variation), read-out: Cmax) was 364 ng/mL. It also gave a half-life ([2]; 200 mg, 200 mg MMB QD n = 6, steady state, median (first quarter, third quarter), read-out: T 1/2 (converted)) of 5.3 h, a Tmax ([2]; 200 mg, 200 mg MMB QD n = 6, steady state, median (first quarter, third quarter), read-out: Tmax) of 3.5 h and an AUC ([2]; 200 mg, 200 mg MMB QD n = 6, steady state, mean (% coefficient of variation)) of 3340 ng·h/mL. It also gave a half-life ([2]; Cycle 1 Day 15, across dose levels, approximately, read-out: Median terminal half-life) of 5 to 6.6 h, a Tmax ([2]; Cycle 1 Day 15, across dose levels, approximately, read-out: Time to peak plasma concentration after the first dose of MMB) of 3 to 4.5 h and a Cmax ([2]; across dose levels, approximately, read-out: Maximum plasma concentration (Cmax), overall) of ~300 ng/mL. For the same compound, the Cmax ([2]; converted from approximately 300 ng/mL, read-out: Maximum plasma concentration (Cmax), overall) was 720 nM, the “Estimated transient maximal TBK1 inhibition” value ([3]; based on the Cmax of approximately 300 ng/mL) was “EC70” and the “MMB concentrations relative to TBK1 inhibition” value ([3]; pharmacokinetic analyses) was “too low”.

From publication PMC6510909 (Investigational New Drugs, 2018)
